# From PubChem BioAssay (NCI)
# Values joined by “and” are separate entries in the source; they are usually repeats but may differ in a detail not shown here. Identical values can stand only once.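 Following 48 hours of exposure in 96-well plates, responses at five concentrations were used to interpolate endpoints linearly. Abbreviation: GI50, concentration required for 50% inhibition of growth. TGI: total growth inhibition.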
# Legend:
# Assay in all cases: growth of human tumour cells (NCI), 48 h
# [1] = test system: BT-549 breast
# [2] = test system: HCT-116 colon
# [3] = test system: HL-60(TB) leukemia
# [4] = test system: MDA-MB-231 breast
# [5] = test system: NCI-H522 lung
# [6] = test system: OVCAR-5 ovarian
# [7] = test system: SK-MEL-2 melanoma
# [8] = test system: SN12C renal
# [9] = test system: TK-10 renal
# [10] = test system: UACC-257 melanoma
Compound,GI50 [1],TGI [1],GI50 [2],TGI [2],GI50 [3] [µM],TGI [3],GI50 [4],TGI [4],GI50 [5],TGI [5],GI50 [6],TGI [6],GI50 [7],TGI [7],GI50 [8] [µM],TGI [8],GI50 [9],TGI [9],GI50 [10],TGI [10]
CC(C)(C)CC(C)(C)c1ccc(O)c(Cc2ccc(Cl)cc2Cl)c1,2.03 µM,3.52 µM,1.66 µM,3.16 µM,2.01,3.72 µM,1.56 µM,2.92 µM,1.37 µM,2.7 µM,1.68 µM,3.08 µM,1.44 µM,2.95 µM,1.47,2.79 µM,1.54 µM,2.87 µM,1.51 µM,2.86 µM
Cn1cc(-c2nc(-c3c[nH]c4ncccc34)cs2)c2ccccc21,23.7 µM,> 100 µM,24.2 µM,> 100 µM,10.7,> 100 µM,1.03 µM,63.8 µM,12.3 µM,> 100 µM,0.762 µM,73.9 µM,54.7 µM,> 100 µM,> 100,> 100 µM,5.78 µM,78.3 µM,66.3 µM,> 100 µM
COc1cc(-c2nc3sc(C)cn3c2/C=C2\C(=O)Nc3ccccc32)c(Br)c(OC)c1OC,23.3 µM,60.1 µM,26 µM,> 100 µM,29.2,> 100 µM,31.6 µM,97 µM,22.2 µM,57.3 µM,55.9 µM,> 100 µM,33.6 µM,> 100 µM,45.4,> 100 µM,32.9 µM,77.5 µM,27.4 µM,81.5 µM
O=C1CC(c2ccccc2)Cc2nc3ccc(Br)cc3cc21 (centres undefined),0.589 µM,15.9 µM,0.0509 µM,> 100 µM,0.235,0.672 µM,0.65 µM,96.3 µM,0.204 µM,20.3 µM,0.757 µM,> 100 µM,0.283 µM,> 100 µM,0.577,> 100 µM,24.2 µM,> 100 µM,23.6 µM,> 100 µM
O=C(COc1cccc(/C=C2\CSc3ccc(Cl)cc3C2=O)c1)c1ccc(Cl)cc1,15 µM,28.8 µM,1.5 µM,2.83 µM,2.69,6.87 µM,2.93 µM,16.5 µM,1.74 µM,4.19 µM,12.5 µM,29.8 µM,11.2 µM,24.5 µM,8.89,22.4 µM,29 µM,79.9 µM,13.4 µM,30.8 µM
COc1cc(/C=C/c2cc(/C=C/c3ccc(O)c(OC)c3)n(C(=O)Nc3ccccc3Cl)n2)ccc1O,0.303 µM,2.75 µM,,,0.282,0.721 µM,0.708 µM,11.4 µM,0.112 µM,0.672 µM,1.65 µM,5.5 µM,0.397 µM,1.6 µM,0.366,5.77 µM,0.601 µM,3.6 µM,1.02 µM,3.71 µM
CC(C)(C)c1cc(NC(=O)Nc2ccc(-c3cn4c(n3)sc3cc(OCCN5CCOCC5)ccc34)cc2)no1,3.52 µM and 0.819 µM and 7.47 µM,20.3 µM and 5.16 µM and > 10 µM,4.23 µM and 0.576 µM and 5.19 µM,19 µM and 11.1 µM and > 10 µM,,> 100 µM and 24.8 µM and > 10 µM,6.34 µM and 2.36 µM and 7.92 µM,21 µM and 16.3 µM and > 10 µM,0.9 µM and 0.937 µM and 3.32 µM,15.5 µM and 13.5 µM and > 10 µM,21.7 µM and 9.53 µM and > 10 µM,86.9 µM and 22.7 µM and > 10 µM,6.73 µM and 2.78 µM and > 10 µM,20.3 µM and 16.2 µM and > 10 µM,,24.9 µM and 13.2 µM and > 10 µM,11.7 µM and 4.12 µM and > 10 µM,24.1 µM and 17.3 µM and > 10 µM,9.01 µM and 3.43 µM and > 10 µM,23.5 µM and 16 µM and > 10 µM
COc1ccc(CCN(CC(=O)N(CC(N)=O)C2CCC[C@@H]2OCc2ccccc2)C(=O)CN(C(=O)CN(CCc2ccc(Cl)cc2)C(=O)CN(C(=O)CN(C)Cc2ccccc2F)[C@H](C)C2CCCCC2)[C@H](C)C2CCCCC2)cc1OC (some centres undefined),1.61 µM,15.6 µM,1.6 µM,> 50 µM,1.21,3.24 µM,2.89 µM,> 50 µM,1.52 µM,32.2 µM,2.24 µM,> 50 µM,0.946 µM,2.84 µM,2.13,> 50 µM,,,1.09 µM,2.68 µM
COC(=O)c1cc2oc(/C=C3/SC(=S)N(N)C3=O)cc2n1Cc1ccccc1,3.5 µM,26.7 µM,5.73 µM,18.9 µM,> 15.7,> 100 µM,8.66 µM,26 µM,7.81 µM,21.8 µM,4.65 µM,20.7 µM,6.82 µM,18.7 µM,12,> 43.3 µM,3.2 µM,11.8 µM,4.39 µM,21.5 µM
